Common to all, as to format: cell-based
The subject of test [1] is Enterococcus faecalis ATCC 51299 (vancomycin-resistant). The conditions noted are these: ATCC 51299, 2 h. The source says:
(§1) The bolisin analogues of the present invention were examined for their suitability as antibiotic therapeutical agents by means of various biological tests. Thus, the chemically synthesized peptides were examined for their antimicrobial effectiveness against three Gram-positive and three Gram-negative bacterial strains as well as against a yeast.
(§2) The following microorganisms were used: • Gram-positive: Staphylococcus aureus ATCC 25923 • Enterococcus faecalis ATCC 51299 (vancomycin-resistant) • Streptococcus pneumoniae DSM 11865 (penicillin-resistant) • Gram-negative: Escherichia coli ATCC 25922 • Pseudomonas aeruginosa ATCC 9027 • Klebsiella pneumoniae ATCC 10031 • Yeast: Candida albicans ATCC 10231
(§3) The antibiotic activity of bolisin analogues was examined by determining the minimum inhibition concentration. […] This method allows to obtain a quantitative result about the antimicrobial potency of the peptides. These examinations were performed by analogy with the recommendations (M7-A3) edited by the NCCLS (National Committee for Clinical Laboratory Standards) by applying a dilution test in a liquid medium using chemically synthesized peptides (peptide sequences according to claims 1 to 3). Mueller Hinton Broth was used as the test medium according to the NCCLS recommendations unless indicated otherwise. […] The minimum inhibition concentrations are stated in [μg/ml].
(§4) A complete growth inhibition could not be achieved in this case. For determining the minimum inhibition concentration, the following microorganisms were used: • 1. Staphylococcus aureus ATCC 25923 • 2. Enterococcus faecalis ATCC 51299 (vancomycin-resistant) • 3. Streptococcus pneumoniae DSM 11865 (penicillin-resistant) • 4. Escherichia coli ATCC 25922 • 5. Pseudomonas aeruginosa ATCC 9027 • 6. Klebsiella pneumoniae ATCC 10031 • 7. Candida albicans ATCC 10231

Test [2] concerns Escherichia coli ATCC 25922. The conditions noted are these: ATCC 25922, 2 h.
Text: as §1, §2, §3, §4

For test [3], the system named is Klebsiella pneumoniae ATCC 10031. The conditions noted are these: ATCC 10031, 2 h.
Text: as §1, §2, §3, §4

The subject of test [4] is Staphylococcus aureus ATCC 25923. The conditions noted are these: ATCC 25923, 2 h.
Text: as §1, §2, §3, §4

Test [5] concerns Streptococcus pneumoniae DSM 11865 (penicillin-resistant). The conditions noted are these: DSM 11865, 2 h.
Text: as §1, §2, §3, §4

Test [6] deals with Pseudomonas aeruginosa ATCC 9027. The conditions noted are these: complete growth inhibition not achieved.
Text: as §1, §2
The antibiotic activity of bolisin analogues was examined by determining the minimum inhibition concentration. The minimum inhibition concentration of an analogue designates the lowest peptide concentration which is required to inhibit the growth of microorganisms completely after an incubation time of 18±2 h. This method allows to obtain a quantitative result about the antimicrobial potency of the peptides. These examinations were performed by analogy with the recommendations (M7-A3) edited by the NCCLS (National Committee for Clinical Laboratory Standards) by applying a dilution test in a liquid medium using chemically synthesized peptides (peptide sequences according to claims 1 to 3). Mueller Hinton Broth was used as the test medium according to the NCCLS recommendations unless indicated otherwise. […] The minimum inhibition concentrations are stated in [μg/ml].
as §4

Where [7] appears, read: half-concentrated Mueller Hinton Broth.

Read-outs that look alike come from different tables or passages of the source. Ends that are not written are not given here.

As for “KLAKRRKWAWRIKYVIY [BOL-103, KLAKRRKWAWRIKYVIY]”, the minimum inhibition concentration in test [1] came out at 37.5 µg/mL; in test [2], 18.75 µg/mL; in test [3], 18.75 µg/mL; in test [4], 18.75 µg/mL; in test [5] it was 37.5 µg/mL. In test [6] (Mueller Hinton Broth), the “peptide concentration giving 75% inhibition of growth (value in parentheses)” value was “(9.4) μg/ml”.
Consider “YIRYKIRSARKRRKALK-OH [BOL-14, YIRYKIRSARKRRKALK]”, for which the minimum inhibition concentration in test [1] was above 300 µg/mL; in test [2], 37.5 µg/mL; in test [3], 75 µg/mL; in test [4], 50 µg/mL; in test [5] it was above 300 µg/mL. For the same substance, in test [6] (setting [7]), the “peptide concentration giving 75% inhibition of growth (value in parentheses)” value is “(150) μg/ml”.
For the substance “YIRYKRRSADKRRKALK-OH [BOL-16, YIRYKRRSADKRRKALK]”, the minimum inhibition concentration in test [1] is above 300 µg/mL; in test [2], 75 µg/mL; in test [3], 150 µg/mL; in test [4], 100 µg/mL; in test [5] it was above 300 µg/mL. The “peptide concentration giving 75% inhibition of growth (value in parentheses)” value in test [6] (setting [7]) was “(300) μg/ml”.
For “YIVWKIRSADKRSKALK-OH [BOL-25, YIVWKIRSADKRSKALK]”, the minimum inhibition concentration was above 300 µg/mL in test [1]; 150 µg/mL in test [2]; 200 µg/mL in test [3]; 150 µg/mL in test [4]; above 300 µg/mL in test [5]. Further, the “peptide concentration giving 75% inhibition of growth (value in parentheses)” value in test [6] (setting [7]) was “(150) μg/ml”.
For “YIVYKIRFAFKRRKAL [BOL-92, YIVYKIRFAFKRRKAL]”, the minimum inhibition concentration in test [1] worked out at 18.75 µg/mL; in test [2], 18.75 µg/mL; in test [3] it was 12.5 µg/mL; in test [4], 18.75 µg/mL; in test [5], 25 µg/mL. Further, the “peptide concentration giving 75% inhibition of growth (value in parentheses)” value in test [6] (Mueller Hinton Broth) is on record as “(37.5) μg/ml”.
Take “YIVYKIRFAFKRSKAL [BOL-91, YIVYKIRFAFKRSKAL]”: the minimum inhibition concentration in test [1] was found to be 37.5 µg/mL; in test [2] it was 25 µg/mL; in test [3], 18.75 µg/mL; in test [4], 25 µg/mL; in test [5] it was 37.5 µg/mL. Also, in test [6] (Mueller Hinton Broth), the “peptide concentration giving 75% inhibition of growth (value in parentheses)” value is given as “(150) μg/ml”.
As for “YIVYKIRSADKRRKALK-OH [BOL-7, YIVYKIRSADKRRKALK]”, the minimum inhibition concentration in test [1] was above 300 µg/mL; in test [2] it was 150 µg/mL; in test [3], 300 µg/mL; in test [4], 75 µg/mL; in test [5], above 300 µg/mL. Besides, the “peptide concentration giving 75% inhibition of growth (value in parentheses)” value in test [6] (setting [7]) is “(75) μg/ml”.
Consider “YIVYKIRSADKRWKALK-OH [BOL-30, YIVYKIRSADKRWKALK]”, for which the minimum inhibition concentration was above 300 µg/mL in test [1]; 150 µg/mL in test [2]; 300 µg/mL in test [3]; 100 µg/mL in test [4]; above 300 µg/mL in test [5]. In test [6] (setting [7]), the “peptide concentration giving 75% inhibition of growth (value in parentheses)” value is listed as “(300) μg/ml”.
For the substance “YIVYKIRSAPKRSKALK-OH [BOL-21, YIVYKIRSAPKRSKALK]”, the minimum inhibition concentration in test [1] was above 300 µg/mL; in test [2], 150 µg/mL; in test [3] it was 200 µg/mL; in test [4], 75 µg/mL; in test [5], above 300 µg/mL. Further, the “peptide concentration giving 75% inhibition of growth (value in parentheses)” value in test [6] (setting [7]) was “(150) μg/ml”.
In the case of “YIVYKIRSARKRRKALK-OH [BOL-13, YIVYKIRSARKRRKALK]”, the minimum inhibition concentration in test [1] came to 75 µg/mL; in test [2], 18.75 µg/mL; in test [3] it was 18.75 µg/mL; in test [4], 18.75 µg/mL; in test [5] it was 150 µg/mL. For the same substance, the “peptide concentration giving 75% inhibition of growth (value in parentheses)” value in test [6] (setting [7]) is reported as “(9.375) μg/ml”.
In the case of “YIVYKIRSARKRSKALK-OH [BOL-6, YIVYKIRSARKRSKALK]”, the minimum inhibition concentration in test [1] turned out to be 200 µg/mL; in test [2] it was 37.5 µg/mL; in test [3] it was 37.5 µg/mL; in test [4], 37.5 µg/mL; in test [5], 150 µg/mL. The “peptide concentration giving 75% inhibition of growth (value in parentheses)” value in test [6] (setting [7]) is “(9.375) μg/ml”.
Consider “YIVYKIRSAWKRSKALK-OH [BOL-29, YIVYKIRSAWKRSKALK]”, for which the minimum inhibition concentration in test [1] stood at 75 µg/mL; in test [2] it was 9.375 µg/mL; in test [3] it was 50 µg/mL; in test [4], 9.375 µg/mL; in test [5], 150 µg/mL. Moreover, the “peptide concentration giving 75% inhibition of growth (value in parentheses)” value in test [6] (setting [7]) is “(18.75) μg/ml”.
Consider “YIVYKIRWADKRSKALK-OH [BOL-27, YIVYKIRWADKRSKALK]”, for which the minimum inhibition concentration in test [1] came out at 300 µg/mL; in test [2] it was 75 µg/mL; in test [3] it was 150 µg/mL; in test [4] it was 75 µg/mL; in test [5], 300 µg/mL. For the same substance, the “peptide concentration giving 75% inhibition of growth (value in parentheses)” value in test [6] (setting [7]) was “(150) μg/ml”.
“YIVYKIRWAWKRSKAL [BOL-93, YIVYKIRWAWKRSKAL]”: the minimum inhibition concentration amounted to 37.5 µg/mL in test [1]; 25 µg/mL in test [2]; 25 µg/mL in test [3]; 25 µg/mL in test [4]; 25 µg/mL in test [5]. The “peptide concentration giving 75% inhibition of growth (value in parentheses)” value in test [6] (Mueller Hinton Broth) was “(37.5) μg/ml”.
For the substance “YIVYKIRWTWKRSKAL [BOL-97, YIVYKIRWTWKRSKAL]”, the minimum inhibition concentration in test [1] worked out at 18.75 µg/mL; in test [2], 18.75 µg/mL; in test [3], 18.75 µg/mL; in test [4], 12.5 µg/mL; in test [5], 18.75 µg/mL. In addition, in test [6] (Mueller Hinton Broth), the “peptide concentration giving 75% inhibition of growth (value in parentheses)” value was “(37.5) μg/ml”.
As to “YIVYKRRSADKRRKALK-OH [BOL-12, YIVYKRRSADKRRKALK]”, the minimum inhibition concentration was above 300 µg/mL in test [1]; 18.75 µg/mL in test [2]; 200 µg/mL in test [3]; 18.75 µg/mL in test [4]; above 300 µg/mL in test [5]. Besides, the “peptide concentration giving 75% inhibition of growth (value in parentheses)” value in test [6] (setting [7]) is listed as “(300) μg/ml”.
Turning to “YIVYKRRSARKRRKALK-OH [BOL-15, YIVYKRRSARKRRKALK]”, the minimum inhibition concentration is above 300 µg/mL in test [1]; 18.75 µg/mL in test [2]; 75 µg/mL in test [3]; 18.75 µg/mL in test [4]; above 300 µg/mL in test [5]. The “peptide concentration giving 75% inhibition of growth (value in parentheses)” value in test [6] (setting [7]) is “(150) μg/ml”.
Take “YIVYKRRSARKRSKALK-OH [BOL-11, YIVYKRRSARKRSKALK]”: the minimum inhibition concentration was above 300 µg/mL in test [1]; 37.5 µg/mL in test [2]; 150 µg/mL in test [3]; 37.5 µg/mL in test [4]; above 300 µg/mL in test [5]. The “peptide concentration giving 75% inhibition of growth (value in parentheses)” value in test [6] (setting [7]) is recorded as “(150) μg/ml”.

Values taken from US7449545B2, “Antimicrobial bolisin peptides” (IPF Pharmaceuticals GmbH, priority 2001, dated 2008).
